# The supplement of paper PMC10307832
# What was measured:
# Experiment in all cases: relative viability (nuclei count vs DMSO), 5 days (fraction); higher = more cells survive
# [1] = compound: CC1=C(C(=O)N2C=CSC2=N1)CCN3CCC(=C(C4=CC=CC=C4)C5=CC=C(C=C5)F)CC3 + Cc1nc(NC(=O)N2CCC[C@H]2C(N)=O)sc1-c1ccnc(C(C)(C)C(F)(F)F)c1 [Alpelisib] (partner 2 µM)
# Procedure, shortened: (§1)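 For relative viability, nuclei counts in treated wells were divided by those in vehicle wells. Lung cancer cell lines had been pin-tool dosed in 1536-well plates the day after seeding and cultured for 5 days, then fixed and stained in one step (final 0.05% Triton X-100, 1% formaldehyde, 1 ug/ml Hoechst) and imaged at 4×. Doses were one drug alone or a fixed anchor-drug dose plus five library-drug doses (not always all listed) in √10 steps, and values are duplicate-plate medians.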
# [2] = compound: CC1=C(C(=O)N2C=CSC2=N1)CCN3CCC(=C(C4=CC=CC=C4)C5=CC=C(C=C5)F)CC3 + CC(C)C[C@H](NC(=O)[C@H](Cc1ccccc1)NC(=O)c1cnccn1)B(O)O [Bortezomib] (partner 0.002 µM)
# Procedure, shortened: as §1
# [3] = compound: CC1=C(C(=O)N2C=CSC2=N1)CCN3CCC(=C(C4=CC=CC=C4)C5=CC=C(C=C5)F)CC3 + O=C(c1cc(Cc2n[nH]c(=O)c3ccccc23)ccc1F)N1CCN(C(=O)C2CC2)CC1 [Olaparib] (partner 8 µM)
# Procedure, shortened: as §1
# [4] = compound: CC1=C(C(=O)N2C=CSC2=N1)CCN3CCC(=C(C4=CC=CC=C4)C5=CC=C(C=C5)F)CC3 + Nc1nc2[nH]cc(CCc3ccc(C(=O)N[C@@H](CCC(=O)O)C(=O)O)cc3)c2c(=O)[nH]1 [Pemetrexed] (partner 0.2 µM)
# Procedure, shortened: as §1
Cell Line,relative viability ([1]; first compound 0.08 µM),relative viability ([1]; first compound 0.253 µM),relative viability ([1]; first compound 0.8 µM),relative viability ([1]; first compound 2.53 µM),relative viability ([1]; first compound 8 µM),relative viability ([2]; first compound 0.253 µM),relative viability ([2]; first compound 0.8 µM),relative viability ([2]; first compound 2.53 µM),relative viability ([2]; first compound 8 µM),relative viability ([3]; first compound 0.08 µM),relative viability ([3]; first compound 0.253 µM),relative viability ([3]; first compound 0.8 µM),relative viability ([3]; first compound 2.53 µM),relative viability ([3]; first compound 8 µM),relative viability ([4]; first compound 0.08 µM),relative viability ([4]; first compound 0.253 µM),relative viability ([4]; first compound 0.8 µM),relative viability ([4]; first compound 2.53 µM),relative viability ([4]; first compound 8 µM),relative viability ([2]; first compound 0.08 µM)
LCLC-97TM1,0.184,0.265,0.226,0.304,0.148,0.484,0.249,0.408,0.597,0.414,0.342,0.425,0.452,0.344,0.196,0.19,0.173,0.198,0.196,–
LCLC-103H,1.08,1,1.12,1.01,0.918,1.06,0.957,1.22,0.903,0.876,0.71,0.859,0.735,0.667,0.542,0.464,0.437,0.437,0.49,1.06
LOU-NH91,0.687,0.709,0.807,0.749,0.677,0.507,0.483,0.481,0.55,0.872,0.845,0.928,0.946,0.813,0.303,0.3,0.438,0.387,0.346,0.508
LU99A,0.47,0.47,0.496,0.621,0.456,1.11,1.05,1.14,0.904,0.151,0.244,0.234,0.254,0.227,0.167,0.193,0.164,0.168,0.152,1.23
LXF-289,1.06,1.07,1.08,1.03,0.917,1.13,1.05,0.97,0.933,0.987,1.32,1.07,1,0.635,0.931,0.883,0.871,0.901,0.76,1.08
NCI-H23,0.694,0.545,0.772,0.829,0.411,1.08,1.1,0.974,0.545,0.287,0.281,0.274,0.276,0.23,0.698,0.55,0.585,0.804,0.516,0.705
NCI-H322M,0.769,0.85,0.897,0.804,0.8,1.28,1.24,1.35,1.09,0.74,0.801,0.678,0.813,0.738,0.686,0.622,0.555,0.706,0.683,1.3
NCI-H441,–,0.638,0.79,1.01,0.588,0.447,0.464,0.468,0.215,0.5,0.502,0.515,0.642,0.367,0.289,0.255,0.252,0.296,0.254,–
NCI-H460,0.54,0.588,0.366,0.621,0.221,0.799,1.3,–,0.184,0.441,0.361,0.423,0.409,0.343,0.0657,0.059,0.0626,0.0637,0.0907,0.718
NCI-H520,0.906,0.594,0.777,1.01,0.794,0.485,0.57,0.999,0.523,0.358,0.342,0.341,0.31,0.306,0.726,0.566,0.691,0.778,0.477,0.615
NCI-H596,0.396,0.478,0.624,0.503,0.426,1.02,0.903,0.887,0.989,0.67,0.646,0.677,0.695,0.708,0.49,0.511,0.488,0.584,0.466,1.09
NCI-H647,1.71,1.24,0.993,1.06,0.793,0.744,0.888,1.5,0.453,0.489,0.518,0.793,0.481,0.358,0.185,0.149,0.185,0.166,0.184,0.858
NCI-H650,–,1.12,1.29,1.09,0.794,0.696,0.877,0.817,0.599,0.44,0.363,0.345,0.412,0.352,1.02,0.957,0.923,1.05,0.871,–
NCI-H661,0.658,0.498,0.461,0.623,0.427,0.776,0.88,0.871,0.697,0.797,0.73,0.8,0.783,0.463,0.961,0.98,0.924,0.995,0.493,0.764
NCI-H838,0.964,0.979,1.02,1.32,0.773,0.581,0.654,0.824,0.696,0.747,0.801,0.849,0.925,0.604,0.254,0.252,0.259,0.246,0.223,0.591
NCI-H1355,0.79,0.948,0.854,0.899,0.623,1.25,1.25,1.21,0.921,0.749,0.815,0.793,0.732,0.529,1.09,1.04,1.02,1.1,0.97,1.28
